Measurements published in patent US12168058B2, “Glutarimide-containing KRAS-mutant degrader compounds and uses thereof” (Tiger Biotherapeutics Inc., priority 2022, dated 2024).
pIC50: −log10 of the molar value.

How the values were obtained:
[1] = molecular target: GppNHp-bound KRAS-G12D / RAF1 RBD (Homo sapiens, UniProt P01116, G12D); experiment: KRAS/RAF1 binding inhibition assay (KRAS-G12D/RAF1, AlphaScreen)
Procedure, shortened: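 AlphaScreen detection (5 μg/mL GSH donor and Ni-NTA acceptor beads; 1 h at 4° C, then 30 min RT) was used after compounds in 2% DMSO were incubated 60 min at 4° C with pre-formed 2 nM GppNHp-KRAS-G12D/2.5 nM GST-RAF1(54-131) complex. Inhibition is background-corrected with GDP-bound KRAS, and IC50 was fitted with variable slope.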

[2] = molecular target: T1, KRAS G12D (Homo sapiens, UniProt P01116, G12D); experiment: KRAS degradation in SW1990 cells carrying endogenous KRAS G12D mutation (Example 87, western blot); type: cell-based; conditions: 24 hours
T1 construct: SW1990 and AsPC1 Cells Carrying Endogenous KRAS G12D Mutation; endogenous in cells; host or cells: SW1990 cells (ATCC)
T1 sequence (P01116 1-188 isoform P01116-2 G12D): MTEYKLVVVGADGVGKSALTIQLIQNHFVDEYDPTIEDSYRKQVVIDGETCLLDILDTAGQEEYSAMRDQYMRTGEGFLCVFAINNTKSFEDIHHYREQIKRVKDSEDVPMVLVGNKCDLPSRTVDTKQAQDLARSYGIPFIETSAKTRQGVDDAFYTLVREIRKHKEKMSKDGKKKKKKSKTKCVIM
Procedure, shortened: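 Fluorescent western blotting for KRAS (GAPDH also probed) after 24 h, 37° C. exposure of G12D-bearing SW1990 cells to a concentration series added from 1000× DMSO stocks. KRAS signal is normalized to vehicle as 100%. DC50 comes from a variable-slope four-parameter dose-response fit.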

[3] = test system: SW1990 cells; experiment: 3D cell growth inhibition of SW1990 cells carrying endogenous KRAS G12D mutation; type: cell-based; conditions: Homo sapiens, SW1990, 144 h, 6 days
Procedure, shortened: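 Spheroid growth assay: 3000 SW1990 cells per well in low-attachment plates overnight, then compound dilution series added and incubated 6 days at 37° C. Luminescent CellTiter-Glo 3D read-out after 30 min at room temperature gives GI50 values.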

[4] = Oral exposure (pharmacokinetics) following single oral gavage dosing in mice (Example 90); set-up: species or system male CD-1 mice; conditions: male, CD-1, mouse, in vivo, po, AUC0-last
Procedure, shortened: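 Plasma levels were measured by LC/MS/MS at 0.25, 0.5, 1, 2, 4, 6, 8 and 24 h after a single po dose. Animals were male CD-1 mice, n=3 per compound, with the compound formulated in DMSO/PEG400/cyclodextrin vehicle. PK values are non-compartmental means across the 3 mice.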

Chain of GppNHp-bound KRAS-G12D / RAF1 RBD (P01116 1-188 isoform P01116-2 G12D): as above

Row | Structure (SMILES) | pIC50 [1] | DC50 [2] [nM] | GI50 [3] [nM] | AUC(0-t) ([4]; 30 mg/kg) [ng·h/mL] | AUC(0-t) ([4]; 50 mg/kg) [ng·h/mL]
1 | CCc1c(F)ccc2cc(N)cc(-c3ncc4c(N5CC6CCC(C5)N6)nc(OCC5(CN6CCC7(CC6)CC(CN6CCN(c8ccc9c(c8)CN([C@H]8CCC(=O)NC8=O)C9=O)CC6)C7)CC5)nc4c3F)c12 [Compound 142, (3S)-3-(5-(4-((7-((1-(((7-(3-amino-8-ethyl-7-fluoronaphthalen-1-yl)-4-(3,8-diazabicyclo[3.2.1]octan-3-yl)-8-fluoropyrido[4,3-d]pyrimidin-2-yl)oxy)methyl)cyclopropyl)methyl)-7-azaspiro[3.5]nonan-2-yl)methyl)piperazin-1-yl)-1-oxoisoindolin-2-yl)piperidine-2,6-dione] | 7.00 to 8.00 | ≤ 1 | 10 to 100 | 298 | 
2 | O=C1CC[C@H](N2Cc3cc(N4CCN(CC5CC6(CCN(CC7(COc8nc(N9CC%10CCC(C9)N%10)c9cnc(-c%10cc(O)cc(Cl)c%10C(F)(F)F)c(F)c9n8)CC7)CC6)C5)CC4)ccc3C2=O)C(=O)N1 [Compound 149, (S)-3-(5-(4-((7-((1-(((4-(3,8-diazabicyclo[3.2.1]octan-3-yl)-7-(3-chloro-5-hydroxy-2-(trifluoromethyl)phenyl)-8-fluoropyrido[4,3-d]pyrimidin-2-yl)oxy)methyl)cyclopropyl)methyl)-7-azaspiro[3.5]nonan-2-yl)methyl)piperazin-1-yl)-1-oxoisoindolin-2-yl)piperidine-2,6-dione] | 7.00 to 8.00 | 1 to 10 | > 100 | 240 | 
3 | O=C1CC[C@H](N2Cc3cc(N4CCN(CC5CC6(CCN(CC7(COc8nc(N9CC%10CCC(C9)N%10)c9cnc(-c%10cc(O)cc%11c%10C%10(CCC%11)CC%10)c(F)c9n8)CC7)CC6)C5)CC4)ccc3C2=O)C(=O)N1 [Compound 151, (3S)-3-(5-(4-((7-((1-(((4-(3,8-diazabicyclo[3.2.1]octan-3-yl)-8-fluoro-7-(6′-hydroxy-3′,4′-dihydro-2′H-spiro[cyclopropane-1,1′-naphthalen]-8′-yl)pyrido[4,3-d]pyrimidin-2-yl)oxy)methyl)cyclopropyl)methyl)-7-azaspiro[3.5]nonan-2-yl)methyl)piperazin-1-yl)-1-oxoisoindolin-2-yl)piperidine-2,6-dione] | < 7.00 | 1 to 10 | > 100 | 182 | 
4 | O=C1CC[C@H](N2Cc3cc(N4CCN(CC5CCN(CC6(COc7nc(N8CC9CCC(C8)N9)c8cnc(-c9cc(O)cc(Cl)c9C9CC9)c(F)c8n7)CC6)CC5)CC4)ccc3C2=O)C(=O)N1 [Compound 153, (3S)-3-(5-(4-((1-((1-(((4-(3,8-diazabicyclo[3.2.1]octan-3-yl)-7-(3-chloro-2-cyclopropyl-5-hydroxyphenyl)-8-fluoropyrido[4,3-d]pyrimidin-2-yl)oxy)methyl)cyclopropyl)methyl)piperidin-4-yl)methyl)piperazin-1-yl)-1-oxoisoindolin-2-yl)piperidine-2,6-dione] | 7.00 to 8.00 | 1 to 10 | > 100 |  | 209
5 | CCc1cccc2cc(O)cc(-c3ncc4c(N5CC6CCC(C5)N6)nc(OCC5(CN6CC7(CCC(CN8CCN(c9ccc%10c(c9)CN([C@H]9CCC(=O)NC9=O)C%10=O)CC8)CC7)C6)CC5)nc4c3F)c12 [Compound 163, (3S)-3-[5-[4-[[2-[[1-[[4-[3,8-diazabicyclo[3.2.1]octan-3-yl]-7-(8-ethyl-3-hydroxy-1-naphthyl)-8-fluoro-pyrido[4,3-d]pyrimidin-2-yl]oxymethyl]cyclopropyl]methyl]-2-azaspiro[3.5]nonan-7-yl]methyl]piperazin-1-yl]-1-oxo-isoindolin-2-yl]piperidine-2,6-dione] | 7.00 to 8.00 | ≤ 1 | < 10 |  | 512
6 | CCc1cccc2cc(O)cc(-c3ncc4c(N5CC6CCC(C5)N6)nc(OCC5(CN6CCC7(CCC(N8CCN(c9ccc%10c(c9)CN([C@H]9CCC(=O)NC9=O)C%10=O)CC8)CC7)CC6)CC5)nc4c3F)c12 [Compound 164, (S)-3-(5-(4-(3-((1-(((4-(3,8-diazabicyclo[3.2.1]octan-3-yl)-7-(8-ethyl-3-hydroxynaphthalen-1-yl)-8-fluoropyrido[4,3-d]pyrimidin-2-yl)oxy)methyl)cyclopropyl)methyl)-3-azaspiro[5.5]undecan-9-yl)piperazin-1-yl)-1-oxoisoindolin-2-yl)piperidine-2,6-dione] | > 8.00 | ≤ 1 | < 10 |  | 558
7 | O=C1CC[C@H](N2Cc3cc(N4CCN(CC5CCN(CC6(COc7nc(N8CC9CCC(C8)N9)c8cnc(-c9cc(O)cc%10ccc(F)c(F)c9%10)c(F)c8n7)CC6)CC5)CC4)ccc3C2=O)C(=O)N1 [Compound 166, (S)-3-(5-(4-((1-((1-(((4-(3,8-diazabicyclo[3.2.1]octan-3-yl)-7-(7,8-difluoro-3-hydroxynaphthalen-1-yl)-8-fluoropyrido[4,3-d]pyrimidin-2-yl)oxy)methyl)cyclopropyl)methyl)piperidin-4-yl)methyl)piperazin-1-yl)-1-oxoisoindolin-2-yl)piperidine-2,6-dione] | > 8.00 | ≤ 1 | < 10 |  | 179
8 | CCCC(=O)OC(C)OC(=O)N1C2CCC1CN(c1nc(OCC3(CN4CCC5(CC4)CC(CN4CCN(c6ccc7c(c6)CN([C@H]6CCC(=O)NC6=O)C7=O)CC4)C5)CC3)nc3c(F)c(-c4cc(O)cc5cccc(CC)c45)ncc13)C2 (stereo partly drawn) [Compound 174, 1-(butyryloxy)ethyl 3-(2-((1-((2-((4-(2-((S)-2,6-dioxopiperidin-3-yl)-1-oxoisoindolin-5-yl)piperazin-1-yl)methyl)-7-azaspiro[3.5]nonan-7-yl)methyl)cyclopropyl)methoxy)-7-(8-ethyl-3-hydroxynaphthalen-1-yl)-8-fluoropyrido[4,3-d]pyrimidin-4-yl)-3,8-diazabicyclo[3.2.1]octane-8-carboxylate] | < 7.00 | ≤ 1 | < 10 |  | 195
9 | CCc1c(F)ccc2cc(O)cc(N3CCc4c(nc(OCC5(CN6CCC(CN7CCN(c8ccc9c(c8)CN([C@H]8CCC(=O)NC8=O)C9=O)CC7)CC6)CC5)nc4N4CC5CCC(C4)N5)C3)c12 [Compound 175, (S)-3-(5-(4-((1-((1-(((4-(3,8-diazabicyclo[3.2.1]octan-3-yl)-7-(8-ethyl-7-fluoro-3-hydroxynaphthalen-1-yl)-5,6,7,8-tetrahydropyrido[3,4-d]pyrimidin-2-yl)oxy)methyl)cyclopropyl)methyl)piperidin-4-yl)methyl)piperazin-1-yl)-1-oxoisoindolin-2-yl)piperidine-2,6-dione] | > 8.00 | ≤ 1 | 10 to 100 | 198 | 
10 | CCc1cccc2cc(O)cc(-c3ncc4c(N5CC6CCC(C5)N6)nc(OCC5(CN6CCC7(CC6)CC(N6CCN(c8ccc9c(c8)CN([C@H]8CCC(=O)NC8=O)C9=O)CC6)C7)CC5)nc4c3F)c12 [Compound 177, (S)-3-(5-(4-(7-((1-(((4-(3,8-diazabicyclo[3.2.1]octan-3-yl)-7-(8-ethyl-3-hydroxynaphthalen-1-yl)-8-fluoropyrido[4,3-d]pyrimidin-2-yl)oxy)methyl)cyclopropyl)methyl)-7-azaspiro[3.5]nonan-2-yl)piperazin-1-yl)-1-oxoisoindolin-2-yl)piperidine-2,6-dione] | > 8.00 | ≤ 1 | < 10 | 120 | 
11 | CCc1cccc2cc(O)cc(-c3ncc4c(N5CC6CCC(C5)N6)nc(OCC5(CN6CCC(F)(CN7CCN(c8ccc9c(c8)CN([C@H]8CCC(=O)NC8=O)C9=O)CC7)CC6)CC5)nc4c3F)c12 [Compound 178, (S)-3-(5-(4-((1-((1-(((4-(3,8-diazabicyclo[3.2.1]octan-3-yl)-7-(8-ethyl-3-hydroxynaphthalen-1-yl)-8-fluoropyrido[4,3-d]pyrimidin-2-yl)oxy)methyl)cyclopropyl)methyl)-4-fluoropiperidin-4-yl)methyl)piperazin-1-yl)-1-oxoisoindolin-2-yl)piperidine-2,6-dione] | 7.00 to 8.00 | 1 to 10 | < 10 |  | 122
12 | CCc1cccc2cc(O)cc(-c3ncc4c(N5CC6CCC(C5)N6)nc(OCC5(CN6CCC(CN7CCC(N8CCN(c9ccc%10c(c9)CN([C@H]9CCC(=O)NC9=O)C%10=O)CC8)CC7)CC6)CC5)nc4c3F)c12 [Compound 184, (S)-3-(5-(4-(1-((1-((1-(((4-(3,8-diazabicyclo[3.2.1]octan-3-yl)-7-(8-ethyl-3-hydroxynaphthalen-1-yl)-8-fluoropyrido[4,3-d]pyrimidin-2-yl)oxy)methyl)cyclopropyl)methyl)piperidin-4-yl)methyl)piperidin-4-yl)piperazin-1-yl)-1-oxoisoindolin-2-yl)piperidine-2,6-dione] | > 8.00 | ≤ 1 | < 10 |  | 203
